Common to all, as to experiment: Competition-based peptide-HLA class I binding assay
Assay [1] concerns the target HLA-A*11:01 (Homo sapiens, UniProt P04439, A114D/D185E/E176A/F33Y/L180Q/S129P/T187R). The following applies: concentration that inhibits 50% binding of fluorescently-labeled standard peptide […], read-out: In vitro HLA binding affinity (IC50, nM), peptide-HLA binding assay, A*11:01. The method, then: (§1) Competition-based peptide-HLA class I binding assays were performed as previously described ([60]). […] The standard peptides were […] for HLA-A^*02:01 and […] for HLA-A^*03:01 and HLA-A^*11:01.

The target of assay [2] is HLA-A*03:01 (Homo sapiens, UniProt P04439). The conditions noted are these: concentration that inhibits 50% binding of fluorescently-labeled standard peptide […], read-out: In vitro HLA binding affinity (IC50, nM), peptide-HLA binding assay, A*03:01. The method, then: as §1
In assay [3] the target is HLA-A*02:01 (Homo sapiens, UniProt P04439, D140Y/D185E/D98H/E176V/E277Q/G131W/G231S/I119V/I121R/I166T/I218V/L300P/L318F/N151K/N90K/P208A/P217A/Q86G/Q94H/R138H/R169H/T345S). The conditions noted are these: concentration that inhibits 50% binding of fluorescently-labeled standard peptide […], read-out: In vitro HLA binding affinity (IC50, nM), peptide-HLA binding assay, A*02:01. The procedure:
Competition-based peptide-HLA class I binding assays were performed as previously described ([60]).

Ends that are not written are not given here.

With KIGDFGLATVK, the IC50 in assay [1] was 32 nM; in assay [2], 415 nM. With KIGDFGLATV, in assay [3], the 50% inhibitory concentration (IC50) was 40 nM. The same measure, in the same setting: next, KIGDFGLATE [KIGDFGLATE]: 86900 nM. KIGDFGLATEK: the IC50 in assay [1] was determined as 45 nM; in assay [2], 672 nM.

(Values after PMC6967030, “Apparent Lack of BRAF^V600E Derived HLA Class I Presented Neoantigens Hampers Neoplastic Cell Targeting by CD8^+ T Cells in Langerhans Cell Histiocytosis” (Frontiers in Immunology, 2020).)
